Key:
[1] = test system: Z138 mantle cell lymphoma tumour cell lines; test: In vitro cytotoxicity, MTT assay; format: cell-based; settings: Z138 cells exposed to the test compounds for 96 hours, cell viability vs DMSO treated cells
How it was run: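 Z138 cells exposed to compounds for 96 hours, then MTT added for 4 hours. Viable cells quantified from formazan absorbance at 540 nm.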

[2] = target: T1, His-His-USP7 (aa208-560, |C315A|) (Homo sapiens, UniProt Q93009, C315A); test: Evaluation of the inhibition of USP7 by the Fluorescence Intensity (FLINT) readings; format: biochemical; settings: 0.25 nM His-His-USP7, compound incubated 60 minutes at 30° C., 500 nM Ubiquitin-Rhodamine-110 substrate; 50% reduction in kinetic rate
T1 construct: His-His-USP7 (aa208-560, |C315A|); His-His (N)
T1 sequence (Q93009 208-560 C315A): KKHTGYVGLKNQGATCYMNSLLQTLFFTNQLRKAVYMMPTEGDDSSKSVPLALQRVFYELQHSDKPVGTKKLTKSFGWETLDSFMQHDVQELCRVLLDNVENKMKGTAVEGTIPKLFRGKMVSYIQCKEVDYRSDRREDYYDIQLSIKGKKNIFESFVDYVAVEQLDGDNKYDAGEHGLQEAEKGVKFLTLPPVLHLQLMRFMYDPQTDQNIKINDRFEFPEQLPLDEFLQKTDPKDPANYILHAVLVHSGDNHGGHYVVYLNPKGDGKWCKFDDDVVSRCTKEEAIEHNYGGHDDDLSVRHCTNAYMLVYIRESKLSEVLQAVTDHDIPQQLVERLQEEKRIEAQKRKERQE
How it was run: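 IC50 reflects 50% reduction in kinetic rate of rhodamine-110 release (Ex485/Em535, reads every 3 min over 21 min), normalised to DMSO and no-enzyme controls, from an 11-point 4-parameter fit. Substrate is 500 nM Ub-Rh110, added after 60 min, 30 °C preincubation of compound with 0.25 nM USP7 aa208–560 C315A. Buffer is Bicine pH 8.0 with 10% DMSO.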

IC50 [2] | SMILES | IC50 ([1]; Homo sapiens, Z-138, 96 h) | IC50 [1]
26.6 nM | Cc1nccnc1C#C[C@@]1(F)CC[C@@H](C(=O)N2CCC(O)(Cn3cnc(Oc4ccc(F)cc4)c(N)c3=O)CC2)[C@H](c2ccccc2)C1 [Example 148, 5-amino-3-({1-[(1R,2R,4R)-4-fluoro-4-[2-(3-methylpyrazin-2yl)ethynyl]-2-phenylcyclohexanecarbonyl]-4-hydroxypiperidin-4-yl}methyl)-6-(4-fluorophenoxy)-3,4-dihydropyrimidin-4-one] | 0.0101 µM | –
52.4 nM | Nc1cccc(C#C[C@@]2(F)CC[C@@H](C(=O)N3CC[C@](O)(Cn4cnc(Oc5ccc(F)cc5)c(N)c4=O)C(F)(F)C3)[C@H](c3ccccc3)C2)n1 [Example 163, 5-amino-3-{[(4S)-1-[(1R,2R,4R)-4-[2-(6-aminopyridin-2-yl)ethynyl]-4-fluoro-2-phenylcyclohexanecarbonyl]-3,3-difluoro-4-hydroxypiperidin-4-yl]methyl}-6-(4-fluorophenoxy)-3,4-dihydropyrimidin-4-one] | 0.0277 µM | –
89.5 nM | CC#CC1(F)CC[C@@H](C(=O)N2CCC(O)(Cn3cnc(Oc4ccc(F)cc4)c(N)c3=O)CC2)[C@H](c2ccccc2)C1 (relative stereo) [Example 125, rel-5-amino-3-[(1-{[(1R,2R)-4-fluoro-2-phenyl-4-(prop-1-yn-1-yl)cyclohexyl]carbonyl}-4-hydroxypiperidin-4-yl)methyl]-6-(4-fluorophenoxy)pyrimidin-4-one] | 0.0603 µM | –
49.7 nM | CO[C@]1(C#Cc2cncnc2)CC[C@@H](C(=O)N2CCC(O)(Cn3cnc(Oc4ccc(F)cc4)c(N)c3=O)CC2)[C@H](c2ccccc2)C1 [Example 139, 5-amino-6-(4-fluorophenoxy)-3-[(4-hydroxy-1{[(1R, 2R,4R)-4-methoxy-2-phenyl-4-[2-(pyrimidin-5-yl)ethynyl]cyclohexyl]carbonyl}piperidin-4-yl)methyl]pyrimidin-4-one] | 0.0291 µM | –
22.1 nM | Cc1ccc(Oc2ncn(CC3(O)CCN(C(=O)[C@@H]4CCC(F)(F)C[C@H]4c4ccccc4)CC3)c(=O)c2N)cc1O [Example 111, 5-amino-3-({1-[(1R,2R)-4,4-difluoro-2-phenylcyclohexane-1-carbonyl]-4-hydroxypiperidin-4-yl}methyl)-6-(3-hydroxy-4-methylphenoxy)pyrimidin-4(3H)-one] | 0.0588 µM | –
58.8 nM | Nc1c(Oc2ccc(F)cc2)ncn(CC2(O)CCN(C(=O)[C@@H]3CC[C@@](F)(C#Cc4ncccn4)C[C@H]3c3ccccc3)CC2)c1=O [Example 142, 5-amino-3-[(1-{[(1R,2R,4S)-4-fluoro-2-phenyl-4-[2-(pyrimidin-2-yl)ethynyl]cyclohexyl]carbonyl}-4-hydroxypiperidin-4-yl)methyl]-6-(4-fluorophenoxy)pyrimidin-4-one] | 0.0176 µM | –
29 nM | Nc1c(Oc2ccc(CCO)cc2)ncn(CC2(O)CCN(C(=O)[C@@H]3CCC(F)(F)C[C@H]3c3ccccc3)CC2)c1=O [Example 36, 5-amino-3-({1-[(1R,2R)-4,4-difluoro-2-phenylcyclohexane-1-carbonyl]-4-hydroxypiperidin-4-}methyl)-6-[4-(2-hydroxyethyl)phenoxy]pyrimdin-4(3H)-one] | 0.035 µM | –
172 nM | Nc1c(Oc2ccc(F)cc2)ncn(CC2(O)CCN(C(=O)[C@@H]3CC[C@@](O)(Cc4ccccc4)C[C@H]3c3ccccc3)CC2)c1=O (relative stereo) [Example 95, rel-5-amino-3-({1-[(1R,2R,4S)-4-benzyl-4-hydroxy-2-phenyl-cyclohexanecarbonyl]-4-hydroxypiperidin-4-yl}methyl)-6-(4-fluorophenoxy)-3,4-dihydropyrimidin-4-one] | 0.253 µM | –
54 nM | CO[C@]1(C#Cc2cncnc2)CC[C@@H](C(=O)N2CC[C@](O)(Cn3cnc(Oc4ccc(F)cc4)c(N)c3=O)C(F)(F)C2)[C@H](c2ccccc2)C1 [Example 175, 5-amino-3-{[(4S)-3,3-difluoro-4-hydroxy-1-[(1R,2R,4R)-4-methoxy-2-phenyl-4-[2-(pyrimidin-5-yl)ethynyl]cyclohexanecarbonyl]piperidin-4-yl]methyl}-6-(4-fluorophenoxy)-3,4-dihydropyrimidin-4-one] | 0.00998 µM | –
47 nM | Nc1c(Oc2ccc3c(c2)CCNC3)ncn(CC2(O)CCN(C(=O)[C@@H]3CCC(F)(F)C[C@H]3c3ccccc3)CC2)c1=O [Example 31, 5-amino-3-({1-[(1R,2R)-4,4-difluoro-2-phenylcyclohexane-1-carbonyl]-4-hydroxypiperidin-4-yl}methyl)-6-[(1,2,3,4-tetrahydroisoquinolin-6-yl)oxy]pyrimidin-4(3H)-one] | 0.648 µM | –
24.7 nM | COc1nccnc1C#C[C@@]1(F)CC[C@@H](C(=O)N2CCC(O)(Cn3cnc(Oc4ccc(F)cc4)c(N)c3=O)CC2)[C@H](c2ccccc2)C1 [Example 154, 5-amino-3-({1-[(1R,2R,4R)-4-fluoro-4-[2-(3-methoxypyrazin-2-yl)ethynyl]-2-phenylcyclohexanecarbonyl]-4-hydroxypiperidin-4-yl}methyl)-6-(4-fluorophenoxy)-3,4-dihydropyrimidin-4-one] | 0.016 µM | –
15 nM | CCC(N)c1ccc(Oc2ncn(CC3(O)CCN(C(=O)[C@@H]4CCC(F)(F)C[C@H]4c4ccccc4)CC3)c(=O)c2N)cc1 (stereo partly drawn) [Example 56, 5-amino-6-[4-(1-aminopropyl)phenoxy]-3-({1-[(1R,2R)-4,4-difluoro-2-phenylcyclohexane-1-carbonyl]-4-hydroxypiperidin-4-yl}methyl)pyrimidin-4(3H)-one] | 0.539 µM | –
69.1 nM | Nc1c(Oc2ccc(F)cc2)ncn(CC2(O)CCN(C(=O)[C@@H]3CC[C@@](F)(C#Cc4cncnc4)C[C@H]3c3ccccc3)CC2)c1=O [Example 140, 5-amino-3-({1-[(1R,2R,4S)-4-fluoro-2-phenyl-4-[2-(pyrimidin-5-yl)ethynyl]cyclohexanecarbonyl]-4-hydroxypiperidin-4-yl}methyl)-6-(4-fluorophenoxy)-3,4-dihydropyrimidin-1-one] | 0.0498 µM | –
29.4 nM | Nc1cccc(C#C[C@@]2(F)CC[C@@H](C(=O)N3CCC(O)(Cn4cnc(Oc5ccc(F)cc5)c(N)c4=O)CC3)[C@H](c3ccccc3)C2)n1 [Example 161, 5-amino-3-[(1-{[(1R,2R,4R)-4-[2-(6-aminopyridin-2-yl)ethynyl]-4-fluoro-2-phenylcyclohexyl]carbonyl}-4-hydroxypiperidin-4-yl)methyl]-6-(4-fluurophenoxy)pyrimidin-4-one] | – | 0.0126 µM
62.7 nM | Nc1c(Oc2ccc(F)cc2)ncn(CC2(O)CCN(C(=O)[C@@H]3CC[C@@](F)(C#Cc4cnccn4)C[C@H]3c3ccccc3)CC2)c1=O [Example 137, 5-amino-3-({1-[(1R42R,4S)-4-fluoro-2-phenyl-4-[2-(pyrazin-2-yl)ethynyl]cyclohexanecarbonyl]-4-hydroxypiperidin-4-yl}methyl)-6-(4-fluorophenoxy)-3,4-dihydropyrimidin-4-one] | 0.0246 µM | –
53 nM | Nc1c(Oc2cccc(CO)c2)ncn(CC2(O)CCN(C(=O)[C@@H]3CCC(F)(F)C[C@H]3c3ccccc3)CC2)c1=O [Example 28, 5-amino-3-({1-[(1R,2R)-4,4-difluoro-2-phenylcyclohexane-1-carbonyl]-4-hydroxypiperidin-4-yl}methyl)-6-[3-(hydroxymethyl)phenoxy]pyrimidin-4(3H)-one] | 0.052 µM | –
63.9 nM | CN(C)Cc1ccc(Oc2ncn(CC3(O)CCN(C(=O)[C@@H]4CCC(F)(F)C[C@H]4c4ccccc4)CC3)c(=O)c2N)cc1 [Example 108, 5-amino-3-({1-[(1R,2R)-4,4-difluoro-2-phenylcyclohexane-1-carbonyl]-4-hydroxypiperidin-4-yl}methyl)-6-{4-[(dimethylamino)methyl]phenoxy}pyrimidin-4(3H)-one] | 0.654 µM | –
8.69 nM | CC(N)c1ccc(Oc2ncn(CC3(O)CCN(C(=O)[C@@H]4CCC(F)(F)C[C@H]4c4ccccc4)CC3)c(=O)c2N)cc1 (single isomer, unassigned; diastereoisomer 2) [Example 55] | – | 0.264 µM
67.7 nM | CO[C@]1(C#Cc2ncc(C)cn2)CC[C@@H](C(=O)N2CC[C@](O)(Cn3cnc(Oc4ccc(F)cc4)c(N)c3=O)C(F)(F)C2)[C@H](c2ccccc2)C1 [Example 174, 5-amino-3-{[(4S)-3,3-difluoro-4-hydroxy-1-[(1R,2R,4R)-4-methoxy-4-[2-(5-methylpyrimidin-2-yl)ethynyl]-2-phenylcyclohexanecarbonyl]piperidin-4-yl]methyl}-6-(4-fluorophenoxy)-3,4-dihydropyrimidin-4-one] | 0.0174 µM | –
39 nM | NCCCc1ccc(Oc2ncn(CC3(O)CCN(C(=O)[C@@H]4CCC(F)(F)C[C@H]4c4ccccc4)CC3)c(=O)c2N)cc1 [Example 68, 5-amino-6-[4-(3-aminopropyl)phenoxy]-3-([1-[(1R,2R)-4,4-difluoro-2-phenylcyclohexane-1-carbonyl]-4-hydroxypiperidin-4-yl]methyl)pyrimidin-4(3H)-one] | 0.454 µM | –
28 nM | Nc1c(Oc2ccc(Cl)c(O)c2)ncn(CC2(O)CCN(C(=O)[C@@H]3CCC(F)(F)C[C@H]3c3ccccc3)CC2)c1=O [Example 110, 5-amino-6-(4-chloro-3-hydroxyphenoxy)-3({1-[(1R,2R)-4,4-difluoro-2-phenylcyclohexane-1-carbonyl]-4-hydroxypiperidin-4-yl}methyl)pyrimidin-4(3H)-one] | 0.0254 µM | –

From patent publication US20210221785A1, “AMINO-PYRIMIDONYL DERIVATIVES, A PROCESS FOR THEIR PREPARATION AND PHARMACEUTICAL COMPOSITIONS CONTAINING THEM” (LES LABORATOIRES SERVIER, priority 2018, published 2021)
